Data reported in US9428483B2, “Prodrug of fluorine-containing amino acid” (TAISHO PHARMACEUTICAL CO., LTD., priority 2012, dated 2016).

How the values were obtained:
[1] = Test 1: Solution Stability Test; format: physicochemical; settings: 37° C., one hour, about 50 μg/mL; for Compound's percent residue (%) pH 6.5: 20 mM phosphate buffer (pH 6.5); for Compound's percent residue (%) pH 1.2: hydrochloric acid solution (pH 1.2)
Method: Inventive Compounds (I) were tested for their stability in solutions simulating the gastric and small intestine's digestive fluids identified below.
The percent residues of Inventive Compounds (I) in a hydrochloric acid solution (pH 1.2) and 20 mM phosphate buffer (pH 6.5) were measured in accordance with the following test method.
A test compound was dissolved in a hydrochloric acid solution (pH 1.2) containing hydrochloric acid and sodium chloride or a 20 mM phosphate buffer (pH 6.5) containing disodium hydrogenphosphate, sodium dihydrogenphosphate and sodium chloride to prepare a solution with a concentration of about 50 μg/mL (near the solubility if undissolved). The solution was incubated at 37° C. for an hour and the compound's concentration before and after the incubation was quantified by high-performance liquid chromatography to calculate the percent residue of the compound.

[2] = Test 4: percent generation of Compound (IV) in human small intestine S9; format: in vitro ADME; settings: 3 μM, 1 mg protein/mL, 37° C. x 1 hr
Method: A test to determine the percent generation of Compound (IV) in human intestine S9 was conducted for Inventive Compounds (I) in accordance with the following method.
Inventive Compounds were incubated (37° C.×1 hr) in a 0.1 M phosphate buffer (pH 7.4) together with a human intestine S9 fraction (Xenotech, LLC/CP710571/Lot, 710571) in the presence of Mg^2+ (5 mM), Ca^2+ (5 mM) and Zn^2+ (0.1 mM). The final concentrations of each Inventive Compound and the small intestine S9 protein were adjusted to 3 μM and 1 mg protein/mL, respectively. To the incubated reaction mixture, 3 volumes of DMSO was added, followed by stirring and centrifugation at 3000 rpm (4° C.×10 min). The resulting supernatant was subjected to analysis by a liquid chromatography-tandem mass spectrometry (LC-MS/MS) system. The lower quantitation limit was 0.3 μM for both Inventive Compounds (I) and Compound (IV).
The LC-MS/MS system used in the measurement was equipped with Waters XBridge Amide (3.5 μm, 50 mm×4.6 mm I.D.), Waters Atlantis T3 (3 μm, 50 mm×4.6 mm I.D.), or Shimadzu Shim-pack XR-ODS (2.2 μm, 30 mm×3.0 mm I.D.) as a separation column. The mobile phase was a 0.1% formic acid/acetonitrile solution or a 0.1% formic acid/methanol solution (flow rate: 0.7-1.3 mL/min) and the analyte was eluted in a linear gradient mode. MS/MS detection of Inventive Compounds (I) and Compound (IV) was performed using an API4000 or Triple quad 5500 system with TurbolonSpray interface (both being products of AB SCIEX) in either a positive or negative ion detection mode. The percent generation of Compound (IV) in human small intestine S9 is shown in the following Table 6 with respect to Inventive Compounds.

Row | SMILES | Compound's percent residue (%) pH 6.5 [1] | Compound's percent residue (%) pH 1.2 [1] | Percent generation (%) of Compound IV in human small intestine S9 [2]
1 | N[C@]1(C(=O)O)[C@H]2[C@@H](C[C@@H]1F)[C@@H]2C(=O)OCOC(=O)C12CC3CC(CC(C3)C1)C2 [Ex. A-1, (1S,2S,3S,5R,6S)-6-(((adamantane-1-carbonyl)oxy)methoxy)carbonyl-2-amino-3-fluorobicyclo[3.1.0]hexane-2-carboxylic acid] | 99% | 100% | 
2 | CC(OC(=O)[C@H]1[C@@H]2C[C@H](F)[C@@](N)(C(=O)O)[C@@H]21)OC(=O)C12CC3CC(CC(C3)C1)C2 (stereo partly drawn) [Ex. A-2, (1S,2S,3S,5R,6S)-6-(1-((adamantane-1-carbonyl)oxy)ethoxy)carbonyl-2-amino-3-fluorobicyclo[3.1.0]hexane-2-carboxylic acid] | 101% | 101% | 
3 | CC(OC(=O)O[C@@H]1C[C@H](C)CC[C@H]1C(C)C)OC(=O)[C@H]1[C@@H]2C[C@H](F)[C@@](N)(C(=O)O)[C@@H]21 (stereo partly drawn) [Ex. A-3, (1S,2S,3S,5R,6S)-2-amino-3-fluoro-6-((1-(((((1R,2S,5R)-2-isopropyl-5-methylcyclohexyl)oxy)carbonyl)oxy)ethoxy)carbonyl)bicyclo[3.1.0]hexane-2-carboxylic acid] | 100% | 100% | 
4 | CC(C)[C@@H]1CC[C@@H](C)C[C@H]1OC(=O)OCOC(=O)[C@H]1[C@@H]2C[C@H](F)[C@@](N)(C(=O)O)[C@@H]21 [Ex. A-4, (1S,2S,3S,5R,6S)-2-amino-3-fluoro-6-(((((((1R,2S,5R)-2-isopropyl-5-methylcyclohexyl)oxy)carbonyl)oxy)methoxy)carbonyl)bicyclo[3.1.0]hexane-2-carboxylic acid] | 98% | 99% | 
5 | CC(C)(C)C(=O)OCOC(=O)[C@H]1[C@@H]2C[C@H](F)[C@@](N)(C(=O)O)[C@@H]21 [Ex. A-7, (1S,2S,3S,5R,6S)-2-amino-3-fluoro-6-(((pivaloyloxy)methoxy)carbonyl)bicyclo[3.1.0]hexane-2-carboxylic acid] | 99% | 100% | 
6 | CC(C)COC(C)OC(=O)[C@H]1[C@@H]2C[C@H](F)[C@@](N)(C(=O)O)[C@@H]21.Cl (stereo partly drawn) [Ex. A-8, (1S,2S,3S,5R,6S)-2-amino-3-fluoro-6-((1-(isobutyloxy)ethoxy)carbonyl)bicyclo[3.1.0]hexane-2-carboxylic acid hydrochloride] | 101% | 100% | 
7 | CC(OC(=O)OC1CCCCC1)OC(=O)[C@H]1[C@@H]2C[C@H](F)[C@@](N)(C(=O)O)[C@@H]21 (stereo partly drawn) [Ex. A-10, (1S,2S,3S,5R,6S)-2-amino-6-((1-(((cyclohexyloxy)carbonyl)oxy)ethoxy)carbonyl)-3-fluorobicyclo[3.1.0]hexane-2-carboxylic acid] | 97% | 100% | 
8 | N[C@]1(C(=O)O)[C@H]2[C@@H](C[C@@H]1F)[C@@H]2C(=O)OCOC(=O)OC12CC3CC(CC(C3)C1)C2 [Ex. A-13, (1S,2S,3S,5R,6S)-6-(((((adamantan-1-yloxy)carbonyl)oxy)methoxy)carbonyl)-2-amino-3-fluorobicyclo[3.1.0]hexane-2-carboxylic acid] | 93% | 93% | 
9 | CC(OC(=O)OC12CC3CC(CC(C3)C1)C2)OC(=O)[C@H]1[C@@H]2C[C@H](F)[C@@](N)(C(=O)O)[C@@H]21 (stereo partly drawn) [Ex. A-14, (1S,2S,3S,5R,6S)-6-((1-(((adamantan-1-yloxy)carbonyl)oxy)ethoxy)carbonyl)-2-amino-3-fluorobicyclo[3.1.0]hexane-2-carboxylic acid] | 97% | 95% | 
10 | CC(C)OC(=O)OC(C)OC(=O)[C@H]1[C@@H]2C[C@H](F)[C@@](N)(C(=O)O)[C@@H]21.O=C(O)C(F)(F)F (stereo partly drawn) [Ex. A-15, (1S,2S,3S,5R,6S)-2-amino-3-fluoro-6-((1-((isopropyloxycarbonyl)oxy)ethoxy)carbonyl)bicyclo[3.1.0]hexane-2-carboxylic acid trifluoroacetate] | 101% | 102% | 
11 | Cc1oc(=O)oc1COC(=O)[C@H]1[C@@H]2C[C@H](F)[C@@](N)(C(=O)O)[C@@H]21 [Ex. A-16, (1S,2S,3S,5R,6S)-2-amino-3-fluoro-6-(((5-methyl-2-oxo-1,3-dioxol-4-yl)methoxy)carbonyl)bicyclo[3.1.0]hexane-2-carboxylic acid] | 98% | 99% | 
12 | Cl.N[C@]1(C(=O)O)[C@H]2[C@@H](C[C@@H]1F)[C@@H]2C(=O)OC1OC(=O)c2ccccc21 (stereo partly drawn) [Ex. A-17, (1S,2S,3S,5R,6S)-2-amino-3-fluorobicyclo[3.1.0]hexane-2,6-dicarboxylic acid 6-(3-phthalidyl) ester hydrochloride] | 97% | 99% | 
13 | C[C@H](N)C(=O)N[C@]1(C(=O)O)[C@H]2[C@@H](C[C@@H]1F)[C@@H]2C(=O)O.Cl [Ex. D-2, (1S,2S,3S,5R,6S)-2-((S)-2-aminopropanamide)-3-fluorobicyclo[3.1.0]hexane-2,6-dicarboxylic acid hydrochloride] | 103% | 100% | 17.8%
14 | Cl.NCCCC[C@H](N)C(=O)N[C@]1(C(=O)O)[C@H]2[C@@H](C[C@@H]1F)[C@@H]2C(=O)O [Ex. D-5, (1S,2S,3S,5R,6S)-2-((S)-2,6-diaminohexanamide)-3-fluorobicyclo[3.1.0]hexane-2,6-dicarboxylic acid hydrochloride] |  |  | 25.9%
15 | C[C@H](N)C(=O)N[C@@H](C)C(=O)N[C@]1(C(=O)O)[C@H]2[C@@H](C[C@@H]1F)[C@@H]2C(=O)O.Cl [Ex. D-8, (1S,2S,3S,5R,6S)-2-((S)-2-((S)-2-aminopropanamide)propanamide)-3-fluorobicyclo[3.1.0]hexane-2,6-dicarboxylic acid hydrochloride] |  |  | 11.7%
16 | Cl.N[C@@H](Cc1ccccc1)C(=O)N[C@]1(C(=O)O)[C@H]2[C@@H](C[C@@H]1F)[C@@H]2C(=O)O [Ex. D-9, (1S,2S,3S,5R,6S)-2-((S)-2-amino-3-phenylpropanamide)-3-fluorobicyclo[3.1.0]hexane-2,6-dicarboxylic acid hydrochloride] |  |  | <10%
17 | Cl.O=C(O)[C@H]1[C@@H]2C[C@H](F)[C@@](NC(=O)[C@@H]3CCCN3)(C(=O)O)[C@@H]21 [Ex. D-10, (1S,2S,3S,5R,6S)-3-fluoro-2-((S)-pyrrolidine-2-(carboxyamide))bicyclo[3.1.0]hexane-2,6-dicarboxylic acid hydrochloride] |  |  | <10%
18 | CSCC[C@@H](N)C(=O)N[C@]1(C(=O)O)[C@H]2[C@@H](C[C@@H]1F)[C@@H]2C(=O)O.Cl [Ex. D-11, (1S,2S,3S,5R,6S)-2-((R)-2-amino-4-(methylthio)butanamide)-3-fluorobicyclo[3.1.0]hexane-2,6-dicarboxylic acid hydrochloride] |  |  | <10%
